Reference: ChEMBL document CHEMBL5247625, “Discovery and characterization of novel potent BCR-ABL degraders by conjugating allosteric inhibitor” (Eur J Med Chem, 2022)
Calls of active or inactive are those of the source. The rule behind the calls is not given here.

Columns and labels:
[1] = molecular target: T1, Protein cereblon/Tyrosine-protein kinase ABL1/Breakpoint cluster region protein (Homo sapiens, UniProt P00519+P11274+Q96SW2); test: Protac activity at CRBN/BCR-ABL in human K562 cells assessed as increase in BCR-ABL degradation at 0.3 to 100 nM incubated for 16 hrs by Western blotting analysis relative to control; assay type: cell-based; conditions: dose 0.3-100 nM
T1 sequence (P00519 whole entry, looked up): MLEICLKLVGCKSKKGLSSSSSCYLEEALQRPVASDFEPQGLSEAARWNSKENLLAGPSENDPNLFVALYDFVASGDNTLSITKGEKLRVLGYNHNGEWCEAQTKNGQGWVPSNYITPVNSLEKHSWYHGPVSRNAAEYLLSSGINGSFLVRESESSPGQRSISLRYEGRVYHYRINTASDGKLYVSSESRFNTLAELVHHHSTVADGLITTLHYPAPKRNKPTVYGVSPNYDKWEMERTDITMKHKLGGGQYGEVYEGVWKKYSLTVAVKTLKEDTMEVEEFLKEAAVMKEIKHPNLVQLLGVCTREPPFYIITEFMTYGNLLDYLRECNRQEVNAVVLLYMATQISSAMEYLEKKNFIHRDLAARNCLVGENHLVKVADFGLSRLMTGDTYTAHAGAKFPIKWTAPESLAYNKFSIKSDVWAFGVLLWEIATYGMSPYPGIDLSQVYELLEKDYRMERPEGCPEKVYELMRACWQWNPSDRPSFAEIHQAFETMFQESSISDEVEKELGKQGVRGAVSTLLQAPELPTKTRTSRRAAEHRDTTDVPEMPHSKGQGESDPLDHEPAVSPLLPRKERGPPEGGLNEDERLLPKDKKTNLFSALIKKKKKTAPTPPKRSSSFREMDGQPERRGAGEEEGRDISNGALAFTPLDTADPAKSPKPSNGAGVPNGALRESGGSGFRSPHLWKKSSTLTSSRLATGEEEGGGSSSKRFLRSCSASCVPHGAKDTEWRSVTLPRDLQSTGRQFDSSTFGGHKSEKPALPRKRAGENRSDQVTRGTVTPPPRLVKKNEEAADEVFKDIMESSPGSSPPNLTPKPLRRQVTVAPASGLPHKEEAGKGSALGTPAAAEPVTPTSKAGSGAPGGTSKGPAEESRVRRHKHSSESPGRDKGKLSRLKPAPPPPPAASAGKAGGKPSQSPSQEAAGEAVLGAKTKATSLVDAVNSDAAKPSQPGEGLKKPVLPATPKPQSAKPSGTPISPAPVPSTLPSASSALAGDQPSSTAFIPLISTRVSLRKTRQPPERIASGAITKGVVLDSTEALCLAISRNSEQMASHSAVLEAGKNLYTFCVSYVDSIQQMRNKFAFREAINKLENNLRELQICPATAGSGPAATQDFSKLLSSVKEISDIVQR
T1 sequence (P11274 whole entry, looked up): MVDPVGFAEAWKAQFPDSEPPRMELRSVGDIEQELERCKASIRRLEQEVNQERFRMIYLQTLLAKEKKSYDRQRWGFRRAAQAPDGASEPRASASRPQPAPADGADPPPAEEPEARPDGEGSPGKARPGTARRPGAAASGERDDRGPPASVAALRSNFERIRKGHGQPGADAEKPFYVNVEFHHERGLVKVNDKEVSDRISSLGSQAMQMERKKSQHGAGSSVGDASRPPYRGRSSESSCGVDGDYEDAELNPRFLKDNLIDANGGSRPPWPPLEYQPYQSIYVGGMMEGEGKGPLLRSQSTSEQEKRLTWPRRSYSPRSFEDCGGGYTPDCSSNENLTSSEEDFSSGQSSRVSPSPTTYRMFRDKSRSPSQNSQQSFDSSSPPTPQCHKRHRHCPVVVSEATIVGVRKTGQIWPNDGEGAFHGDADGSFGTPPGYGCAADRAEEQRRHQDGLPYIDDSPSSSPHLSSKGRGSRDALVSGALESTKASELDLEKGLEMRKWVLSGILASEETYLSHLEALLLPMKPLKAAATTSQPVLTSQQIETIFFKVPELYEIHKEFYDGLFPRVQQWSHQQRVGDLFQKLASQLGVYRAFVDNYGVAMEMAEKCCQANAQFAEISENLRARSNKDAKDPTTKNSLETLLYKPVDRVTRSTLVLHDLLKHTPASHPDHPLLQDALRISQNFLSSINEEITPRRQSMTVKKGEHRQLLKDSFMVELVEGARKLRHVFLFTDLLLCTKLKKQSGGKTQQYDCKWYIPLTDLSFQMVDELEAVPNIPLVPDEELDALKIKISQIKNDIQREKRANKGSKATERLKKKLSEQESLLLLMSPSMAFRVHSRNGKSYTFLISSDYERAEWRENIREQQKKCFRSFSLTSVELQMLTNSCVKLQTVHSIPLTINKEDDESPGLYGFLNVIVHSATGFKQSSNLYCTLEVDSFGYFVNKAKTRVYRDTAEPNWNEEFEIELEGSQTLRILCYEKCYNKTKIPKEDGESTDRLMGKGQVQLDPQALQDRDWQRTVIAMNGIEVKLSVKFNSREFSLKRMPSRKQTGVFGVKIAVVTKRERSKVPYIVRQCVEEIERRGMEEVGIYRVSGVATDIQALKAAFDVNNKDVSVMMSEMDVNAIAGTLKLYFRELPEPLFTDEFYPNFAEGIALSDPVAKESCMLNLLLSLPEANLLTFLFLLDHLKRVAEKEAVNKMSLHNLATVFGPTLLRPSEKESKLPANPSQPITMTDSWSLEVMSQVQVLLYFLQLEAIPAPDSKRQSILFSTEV
T1 sequence (Q96SW2 whole entry, looked up): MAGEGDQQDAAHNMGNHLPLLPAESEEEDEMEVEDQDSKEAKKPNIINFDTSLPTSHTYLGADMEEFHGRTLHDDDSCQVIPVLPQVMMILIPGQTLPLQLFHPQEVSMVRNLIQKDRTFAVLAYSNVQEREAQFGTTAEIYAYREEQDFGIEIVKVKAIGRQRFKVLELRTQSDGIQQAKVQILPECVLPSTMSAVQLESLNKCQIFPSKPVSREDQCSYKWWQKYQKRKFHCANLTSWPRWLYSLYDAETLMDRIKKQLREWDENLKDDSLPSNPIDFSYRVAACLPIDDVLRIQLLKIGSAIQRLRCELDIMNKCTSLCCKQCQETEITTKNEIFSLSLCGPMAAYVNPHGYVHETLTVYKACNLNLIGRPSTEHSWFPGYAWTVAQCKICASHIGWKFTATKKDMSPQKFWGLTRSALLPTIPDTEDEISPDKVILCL

[2] = tested on: Protein cereblon/Tyrosine-protein kinase ABL1/Breakpoint cluster region protein (Mus musculus), P00519+P11274+Q8C7D2 [V468F]; test: Protac activity at CRBN/BCR-ABL V468F mutant in mouse 32D cells assessed as increase in BCR-ABL degradation at 1 to 1000 nM by Western blotting analysis; assay type: cell-based; conditions: dose 1-1000 nM
[3] = tested on: Protein cereblon/Tyrosine-protein kinase ABL1/Breakpoint cluster region protein (Mus musculus), P00519+P11274+Q8C7D2 [P223S]; test: Protac activity at CRBN/asciminib resistance BCR-ABL P223S mutant in mouse 32D cells assessed as increase in BCR-ABL degradation at 1 to 1000 nM by Western blotting analysis; assay type: cell-based; conditions: dose 1-1000 nM
[4] = molecular target: T2, Signal transducer and activator of transcription 5A (Homo sapiens) (UniProt P42229); test: Inhibition of STAT5 phosphorylation at Tyr694 residue in human K562 cells at 100 nM incubated for 6 hrs followed by compound washout measured upto 96 hrs by Western blotting analysis; assay type: cell-based
T2 sequence (whole entry): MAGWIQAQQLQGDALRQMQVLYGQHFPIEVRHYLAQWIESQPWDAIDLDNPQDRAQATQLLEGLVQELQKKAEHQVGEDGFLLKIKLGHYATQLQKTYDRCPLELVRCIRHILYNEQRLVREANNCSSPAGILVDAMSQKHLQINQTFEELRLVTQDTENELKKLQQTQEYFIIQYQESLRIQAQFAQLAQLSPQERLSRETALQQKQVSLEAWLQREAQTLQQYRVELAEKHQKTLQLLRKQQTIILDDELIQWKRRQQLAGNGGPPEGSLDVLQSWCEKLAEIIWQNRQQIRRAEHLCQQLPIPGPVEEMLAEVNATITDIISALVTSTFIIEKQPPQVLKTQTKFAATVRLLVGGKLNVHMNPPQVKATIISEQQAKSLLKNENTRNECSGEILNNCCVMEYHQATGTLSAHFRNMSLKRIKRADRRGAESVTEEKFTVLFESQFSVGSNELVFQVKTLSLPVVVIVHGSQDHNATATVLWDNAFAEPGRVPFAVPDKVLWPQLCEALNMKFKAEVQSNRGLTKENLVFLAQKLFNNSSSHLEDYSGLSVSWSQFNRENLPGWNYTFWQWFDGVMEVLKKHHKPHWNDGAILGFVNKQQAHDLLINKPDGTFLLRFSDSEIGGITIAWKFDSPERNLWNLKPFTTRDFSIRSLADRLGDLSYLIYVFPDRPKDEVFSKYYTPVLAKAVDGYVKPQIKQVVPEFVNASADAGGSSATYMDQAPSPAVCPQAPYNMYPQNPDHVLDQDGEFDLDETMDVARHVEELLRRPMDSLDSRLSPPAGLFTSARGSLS

[5] = molecular target: T1, Protein cereblon/Tyrosine-protein kinase ABL1/Breakpoint cluster region protein; test: Protac activity at CRBN/BCR-ABL in human K562 cells assessed as induction of BCR-ABL degradation at 100 nM pretreated with MG132 for 2 hrs followed by compound addition measured after 8 hrs by Western blotting analysis; assay type: cell-based; conditions: time 10.0 hrs
K562 [6] = test: Down regulation of ZFP91 expression in human K562 cells at 100 nM measured after 16 hrs by LC-MS analysis; assay type: functional, cell-based
[7] = molecular target: T1, Protein cereblon/Tyrosine-protein kinase ABL1/Breakpoint cluster region protein; test: Protac activity at CRBN/BCR-ABL in human K562 cells assessed as increase in BCR-ABL degradation at 5 nM by Western blotting analysis; assay type: cell-based
[8] = molecular target: T1, Protein cereblon/Tyrosine-protein kinase ABL1/Breakpoint cluster region protein; test: Protac activity at CRBN/BCR-ABL in human K562 cells assessed as increase in BCR-ABL degradation at 100 nM incubated for 6 hrs followed by compound washout measured after 4 hrs by Western blotting analysis; assay type: cell-based
K562 [9] = test: Down regulation of IKZF3 expression in human K562 cells at 100 nM measured after 16 hrs by LC-MS analysis; assay type: functional, cell-based
[10] = molecular target: Bcr/Abl fusion protein (Homo sapiens) (UniProt P00519+P11274); test: Inhibition of BCR-ABL phosphorylation at Tyr245 residue in human K562 cells at 0.3 to 100 nM incubated for 16 hrs by Western blotting analysis; assay type: cell-based; conditions: dose 0.3-100 nM
Bcr/Abl fusion protein (Homo sapiens), sequence (P00519 whole entry, looked up, the tested form may be a part): as the sequence (P00519 whole entry, looked up) above
Bcr/Abl fusion protein (Homo sapiens), sequence (P11274 whole entry, looked up, the tested form may be a part): as the sequence (P11274 whole entry, looked up) above

[11] = molecular target: T1, Protein cereblon/Tyrosine-protein kinase ABL1/Breakpoint cluster region protein; test: Protac activity at CRBN/BCR-ABL in human K562 cells assessed as induction of BCR-ABL degradation at 100 nM pretreated with lenalidomide for 2 hrs followed by compound addition measured after 8 hrs by Western blotting analysis; assay type: cell-based; conditions: time 10.0 hrs
[12] = molecular target: T1, Protein cereblon/Tyrosine-protein kinase ABL1/Breakpoint cluster region protein; test: Protac activity at CRBN/BCR-ABL in human K562 cells assessed as increase in BCR-ABL degradation at 100 nM incubated for 6 hrs followed by compound washout measured upto 96 hrs by Western blotting analysis; assay type: cell-based
K562 [13] = test: Down regulation of […] expression in human K562 cells at 100 nM measured after 16 hrs by LC-MS analysis; assay type: functional, cell-based
[14] = molecular target: Tyrosine-protein kinase ABL1 (Homo sapiens, UniProt P00519); test: Binding affinity to recombinant ABL (unknown origin)
Tyrosine-protein kinase ABL1, sequence (P00519 whole entry): as the sequence (P00519 whole entry, looked up) above

K562 [15] = test: Cytotoxicity against human K562 cells assessed as inhibition of cell growth at 100 nM incubated for 6 hrs followed by compound washout measured upto 96 hrs; assay type: functional, cell-based
[16] = tested on: Protein cereblon/Tyrosine-protein kinase ABL1/Breakpoint cluster region protein (Mus musculus), P00520+Q6PAJ1+Q8C7D2 [T315I]; test: Protac activity at CRBN/BCR-ABL T315I mutant in mouse 32D cells assessed as increase in BCR-ABL degradation at 1 to 1000 nM by Western blotting analysis; assay type: cell-based; conditions: dose 1-1000 nM
K562 [17] = test: Induction of cell death in human K562 cells assessed as inhibition of cell growth at 100 nM incubated for 6 hrs followed by compound washout measured upto 96 hrs; assay type: functional, cell-based
[18] = molecular target: T1, Protein cereblon/Tyrosine-protein kinase ABL1/Breakpoint cluster region protein; test: Protac activity at CRBN/BCR-ABL in human K562 cells assessed as increase in BCR-ABL degradation at 100 nM by Western blotting analysis; assay type: cell-based
[19] = molecular target: T1, Protein cereblon/Tyrosine-protein kinase ABL1/Breakpoint cluster region protein; test: Protac activity at CRBN/BCR-ABL in human K562 cells assessed as induction of BCR-ABL degradation at 100 nM pretreated with asciminib for 2 hrs followed by compound addition measured after 8 hrs by Western blotting analysis; assay type: cell-based; conditions: time 10.0 hrs
[20] = tested on: Protein cereblon/Tyrosine-protein kinase ABL1/Breakpoint cluster region protein (Mus musculus), P00519+P11274+Q8C7D2 [T315M]; test: Protac activity at CRBN/asciminib resistance BCR-ABL T315M mutant in mouse 32D cells assessed as increase in BCR-ABL degradation at 1 to 1000 nM by Western blotting analysis; assay type: cell-based; conditions: dose 1-1000 nM
[21] = tested on: Protein cereblon/Tyrosine-protein kinase ABL1/Breakpoint cluster region protein (Mus musculus), P00519+P11274+Q8C7D2 [F359V]; test: Protac activity at CRBN/asciminib resistance BCR-ABL F359V mutant in mouse 32D cells assessed as increase in BCR-ABL degradation at 1 to 1000 nM by Western blotting analysis; assay type: cell-based; conditions: dose 1-1000 nM

With `O=C1CCC(N2Cc3c(SCCCCCCN4CCN(C5CCN(c6ncc(C(=O)Nc7ccc(OC(F)(F)Cl)cc7)cc6-c6ccn[nH]6)CC5)CC4)cccc3C2=O)C(=O)N1` (stereo unspecified) the Emax [1] was 91.2%, the Activity [2] was “inactive” and the Activity [3] was “Active”. For the same compound, the inhibition [4] was “inactive”, the Activity [5] was “inactive” and the Activity (K562 [6]) was “Active”. The Activity [7] was 81.8%, the Activity [8] was “inactive” and the Activity (K562 [9]) was “Active”. For the same compound, the inhibition [10] was “Active”, the Activity [11] was “inactive” and the Activity [12] was “inactive”. For the same compound, the Activity (K562 [13]) was “Active”, the Kd [14] was 4.74 µM and the Activity (K562 [15]) was “Active”. The Activity [16] was “Active”, the Activity (K562 [17]) was “Active” and the Activity [18] was 91.2%. For the same compound, the Activity [19] was “inactive”, the Activity [20] was “Active” and the Activity [21] was “Active”.
